Test results reported in PubChem BioAssay AID248 (DTP/NCI, 2004).
Where “and” joins values, the source holds several entries; their conditions need not be identical. Identical values can stand only once. Inconclusive results and toxic doses are left out. Cut-off read from the data, not from the text of the source: active = T/C of 150% or more; inactive = T/C below 125%.

Test system: L1210 leukemia ip in BDF1 mice, survival T/C
Assay: NCI In Vivo Anticancer Drug Screen. Data for tumor model L1210 Leukemia (intraperitoneal) in B6D2F1 (BDF1) mice
Details: endpoint: mean survival time, higher = longer survival
Procedure, shortened: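 Value reflects the ratio of survival in compound-treated mice to survival in vehicle-treated controls, with both groups carrying the same transplanted tumor.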

[1] = dose: 100.0 mg/kg/injection, schedule: Q01DX001 (ip), vehicle: saline
[2] = dose: 400.0 mg/kg/injection, schedule: Q01DX001 (ip), vehicle: saline
[3] = dose: 100.0 mg/kg/injection, schedule: Q01DX009 (ip), vehicle: Klucel (hydroxypropylcellulose) (HPC)
[4] = dose: 100.0 mg/kg/injection, schedule: Q04DX003 (ip), vehicle: Klucel (hydroxypropylcellulose) (HPC)
[5] = dose: 200.0 mg/kg/injection, schedule: Q04DX003 (ip), vehicle: Klucel (hydroxypropylcellulose) (HPC)
[6] = dose: 400.0 mg/kg/injection, schedule: Q04DX003 (ip), vehicle: Klucel (hydroxypropylcellulose) (HPC)
[7] = dose: 200.0 mg/kg/injection, schedule: Q01DX009 (ip), vehicle: Klucel (hydroxypropylcellulose) (HPC)
[8] = dose: 400.0 mg/kg/injection, schedule: Q01DX009 (ip), vehicle: Klucel (hydroxypropylcellulose) (HPC)
[9] = dose: 100.0 mg/kg/injection, schedule: Q04DX003 (ip), vehicle: saline with Tween-80
[10] = dose: 200.0 mg/kg/injection, schedule: Q04DX003 (ip), vehicle: saline with Tween-80
[11] = dose: 400.0 mg/kg/injection, schedule: Q04DX003 (ip), vehicle: saline with Tween-80
[12] = dose: 100.0 mg/kg/injection, schedule: Q04DX003 (ip), vehicle: saline

Measured: T/C

Nc1nc(N)c2nc(CNc3ccc(C(=O)NC(CCC(=O)O)C(=O)O)cc3)cnc2n1 (stereo not drawn)
inactive: dose: 0.02 mg/kg/injection, schedule: Q01DX Z (sc), vehicle: saline 122 % of control | dose: 0.03 mg/kg/injection, schedule: Q01DX Z (ip), vehicle: saline 118 % of control | dose: 0.05 mg/kg/injection, schedule: Q01DX006 (iv), vehicle: saline 114 % of control | dose: 0.05 mg/kg/injection, schedule: Q01DX010 (ip), vehicle: other 98 % of control and 112 % of control | dose: 0.05 mg/kg/injection, schedule: Q01DX Z (im), vehicle: saline 119 % of control | dose: 0.06 mg/kg/injection, schedule: Q01DX Z (ip), vehicle: saline 105 % of control | dose: 0.1 mg/kg/injection, schedule: Q01DX010 (ip), vehicle: other 108 % of control | dose: 0.1 mg/kg/injection, schedule: Q01DX Z (im), vehicle: saline 113 % of control | dose: 0.1 mg/kg/injection, schedule: Q01DX Z (ip), vehicle: saline 119 % of control | dose: 0.2 mg/kg/injection, schedule: Q01DX Z (ip), vehicle: saline 96 % of control and 105 % of control | dose: 0.2 mg/kg/injection, schedule: Q01DX Z (oral), vehicle: saline 119 % of control | dose: 0.2 mg/kg/injection, schedule: Q01DX Z (sc), vehicle: saline 101 % of control and 114 % of control | dose: 0.5 mg/kg/injection, schedule: Q01DX001 (ip), vehicle: saline 111 % of control and 114 % of control | dose: 0.5 mg/kg/injection, schedule: Q01DX Z (oral), vehicle: saline 106 % of control | dose: 0.5 mg/kg/injection, schedule: Q01DX Z (sc), vehicle: saline 103 % of control | dose: 1.0 mg/kg/injection, schedule: Q01DX001 (ip), vehicle: saline 115 % of control | dose: 1.0 mg/kg/injection, schedule: Q01DX Z (ip), vehicle: saline 94 % of control | dose: 2.0 mg/kg/injection, schedule: Q01DX001 (ip), vehicle: saline 117 % of control and 121 % of control | dose: 16.0 mg/kg/injection, schedule: Q01DX001 (ip), vehicle: saline 106 % of control and 124 % of control | dose: 32.0 mg/kg/injection, schedule: Q01DX001 (ip), vehicle: saline 96 % of control and 120 % of control | dose: 64.0 mg/kg/injection, schedule: Q01DX001 (ip), vehicle: saline 105 % of control | dose: 128.0 mg/kg/injection, schedule: Q01DX001 (ip), vehicle: saline 105 % of control and 86 % of control | dose: 256.0 mg/kg/injection, schedule: Q01DX001 (ip), vehicle: saline 100 % of control
active: dose: 0.02 mg/kg/injection, schedule: Q01DX Z (ip), vehicle: saline 170 % of control | dose: 0.2 mg/kg/injection, schedule: Q01DX Z (im), vehicle: saline 154 % of control | dose: 0.4 mg/kg/injection, schedule: Q01DX010 (ip), vehicle: other 162 % of control

COc1ccc2c(c1)CC/C(=C\c1ccccn1)C2=O
inactive: dose: 100.0 mg/kg/injection, schedule: Q04DX003 (ip), vehicle: carboxymethylcellulose (CMC) 98 % of control | dose: 200.0 mg/kg/injection, schedule: Q04DX003 (ip), vehicle: carboxymethylcellulose (CMC) 97 % of control | dose: 400.0 mg/kg/injection, schedule: Q04DX003 (ip), vehicle: carboxymethylcellulose (CMC) 98 % of control

CCc1ccc2[nH]c(C(=O)O)cc2c1
inactive: [1] 92 % of control | [2] 90 % of control

NC(=O)c1cc2ccccc2[n+](Cc2ccc(F)cc2)c1
inactive: dose: 75.0 mg/kg/injection, schedule: Q01DX001 (ip), vehicle: saline 107 % of control

Cc1cc(C(C)(C)C)c(O)c(C(C)(C)C)c1
inactive: dose: 25.0 mg/kg/injection, schedule: Q01DX009 (ip), vehicle: Klucel (hydroxypropylcellulose) (HPC) 110 % of control | dose: 50.0 mg/kg/injection, schedule: Q01DX009 (ip), vehicle: Klucel (hydroxypropylcellulose) (HPC) 103 % of control | [3] 113 % of control | [4] 103 % of control | [5] 114 % of control | [6] 95 % of control

O=C(c1ccccc1)c1c2ccccc2c(C(=O)c2ccccc2)c2ccccc12
inactive: [3] 104 % of control | [4] 103 % of control | [7] 97 % of control | [5] 100 % of control | [8] 97 % of control | [6] 99 % of control

Cc1o[nH]c(=O)c1C
inactive: [9] 103 % of control | [10] 94 % of control | [11] 103 % of control

CCN(CC)C(C(=O)Nc1ccccc1)C(=O)Nc1ccccc1
inactive: [9] 92 % of control | [10] 94 % of control | [11] 90 % of control

CC(=O)/C=C(/C)O
inactive: [12] 100 % of control | dose: 200.0 mg/kg/injection, schedule: Q04DX003 (ip), vehicle: saline 118 % of control

CC(C)[P+](c1ccccc1)(c1ccccc1)c1ccccc1
inactive: dose: 5.0 mg/kg/injection, schedule: Q01DX001 (ip), vehicle: saline 108 % of control | dose: 10.0 mg/kg/injection, schedule: Q01DX001 (ip), vehicle: saline 111 % of control | dose: 16.25 mg/kg/injection, schedule: Q01DX009 (ip), vehicle: saline 100 % of control | dose: 20.0 mg/kg/injection, schedule: Q01DX001 (ip), vehicle: saline 118 % of control | dose: 25.0 mg/kg/injection, schedule: Q04DX003 (ip), vehicle: saline 113 % of control | dose: 40.0 mg/kg/injection, schedule: Q01DX001 (ip), vehicle: saline 113 % of control | dose: 50.0 mg/kg/injection, schedule: Q04DX003 (ip), vehicle: saline 103 % of control | dose: 65.0 mg/kg/injection, schedule: Q04DX003 (ip), vehicle: saline 107 % of control and 116 % of control | [1] 108 % of control | [12] 118 % of control | dose: 150.0 mg/kg/injection, schedule: Q04DX003 (ip), vehicle: saline 90 % of control

CC(C)(C)C1COP(=O)(Oc2ccccc2)OC1 (stereo not drawn)
inactive: dose: 100.0 mg/kg/injection, schedule: Q01DX001 (ip), vehicle: carboxymethylcellulose (CMC) 91 % of control | dose: 200.0 mg/kg/injection, schedule: Q01DX001 (ip), vehicle: carboxymethylcellulose (CMC) 94 % of control

Cc1ccc(SC(=O)CC(=O)Sc2ccc(C)cc2)cc1
inactive: dose: 50.0 mg/kg/injection, schedule: Q01DX009 (ip), vehicle: saline with Tween-80 91 % of control | dose: 100.0 mg/kg/injection, schedule: Q01DX009 (ip), vehicle: saline with Tween-80 94 % of control | dose: 200.0 mg/kg/injection, schedule: Q01DX009 (ip), vehicle: saline with Tween-80 97 % of control

CC(=O)OC1=C(C)CCC1=O
inactive: [1] 89 % of control | dose: 200.0 mg/kg/injection, schedule: Q01DX001 (ip), vehicle: saline 95 % of control | [2] 89 % of control

O=C(Oc1ccccc1)c1ccc2ccccc2c1O
inactive: dose: 100.0 mg/kg/injection, schedule: Q04DX002 (ip), vehicle: Klucel (hydroxypropylcellulose) (HPC) 100 % of control | dose: 200.0 mg/kg/injection, schedule: Q04DX002 (ip), vehicle: Klucel (hydroxypropylcellulose) (HPC) 91 % of control | dose: 400.0 mg/kg/injection, schedule: Q04DX002 (ip), vehicle: Klucel (hydroxypropylcellulose) (HPC) 100 % of control

Cc1cccc(Nc2cc(=O)[nH]c(=O)[nH]2)c1C
inactive: dose: 150.0 mg/kg/injection, schedule: Q01DX001 (ip), vehicle: saline with Tween-80 90 % of control | dose: 300.0 mg/kg/injection, schedule: Q01DX001 (ip), vehicle: saline with Tween-80 95 % of control

N#Cc1nn(CCCl)c(=O)c2ccccc12
inactive: dose: 100.0 mg/kg/injection, schedule: Q01DX001 (ip), vehicle: alcohol 98 % of control | dose: 100.0 mg/kg/injection, schedule: Q04DX003 (ip), vehicle: alcohol 95 % of control | dose: 200.0 mg/kg/injection, schedule: Q01DX001 (ip), vehicle: alcohol 107 % of control | dose: 200.0 mg/kg/injection, schedule: Q04DX003 (ip), vehicle: alcohol 97 % of control | dose: 400.0 mg/kg/injection, schedule: Q01DX001 (ip), vehicle: alcohol 107 % of control | dose: 400.0 mg/kg/injection, schedule: Q04DX003 (ip), vehicle: alcohol 87 % of control

O=C1N(CCCl)CCN1c1ccccc1
inactive: dose: 100.0 mg/kg/injection, schedule: Q01DX001 (ip), vehicle: Klucel (hydroxypropylcellulose) (HPC) 93 % of control | [3] 104 % of control | dose: 200.0 mg/kg/injection, schedule: Q01DX001 (ip), vehicle: Klucel (hydroxypropylcellulose) (HPC) 96 % of control | [7] 106 % of control | dose: 400.0 mg/kg/injection, schedule: Q01DX001 (ip), vehicle: Klucel (hydroxypropylcellulose) (HPC) 95 % of control | [8] 106 % of control
